{
  "source": "patent US20130085146A1",
  "about": "“LIPID-DRUG FORMULATIONS AND METHODS FOR TARGETED DELIVERY OF LIPID-DRUG COMPLEXES TO LYMPHOID TISSUES” (priority 2003, published 2013)",
  "key": {"[1]": {"test": "Particle size of lipid-drug complex (photon correlation spectroscopy)", "format": "physicochemical", "conditions": "drug associated with lipid membranes, pH 7.4", "protocol": "(§1) The mixture was rotor-evaporated under N2 and reduced pressure. Then it was resuspended in sterile phosphate-buffered saline (PBS, pH 7.4), to a final lipid concentration of 50 mM, and homogenized with a probe sonicator until a uniform particle size of about 50 nm to about 80 nm diameter was reached. Sonication is preferably done until sonicated unilamellar vesicles that are stable at their minimum diameter are obtained. […] The size and zeta potential (surface potential at hydrodynamic plane) of the lipid-drug complex was monitored using a Malvern Zetasizer 5000 operating at photon correlation spectroscopy mode and electrophoretic mode, respectively. […] The rest of the preparation procedure remains the same."}, "HIV-1LAV": {"test_system": "HIV-1LAV", "test": "Inhibition of HIV-1LAV replication in human PBMCs (p24 antigen)", "format": "cell-based", "conditions": "Human immunodeficiency virus 1, PBMC", "protocol": "(§2) The effective concentrations that produce half the maximum anti-HIV activity (EC50) were determined based on non-linear regression of each set of data, representing the frequency of replication."}, "[2]": {"conditions": "Example 10; SC 20 mg/kg/day, two animals"}, "[3]": {"conditions": "cited from earlier work"}, "[4]": {"test": "Indinavir accumulation in lymph nodes after oral free indinavir", "format": "in vivo, macaques", "conditions": "macaque; for Kp at […]: po, 25 mg/kg; for Kp at […] / Kp at 2 hr / Kp at 3.75 hr: read-out: Lymph node to plasma ratio; for Kp at 2 hr / Kp at 3.75 hr: oral 25 mg/kg; for Kp at 2 hr / concentration at 2 hr: animal 94094; for Kp at 3.75 hr / concentration at 3.75 hr: animal 94096; for concentration at 2 hr / concentration at 3.75 hr: oral 25 mg/kg in solution"}, "HIV-2287 [5]": {"test_system": "HIV-2287", "test": "microbe, parasite or virus in culture", "format": "cell-based, HIV-2", "protocol": "as §2\nAfter incubating the cells at 37° C. in RPMI 1640 containing 10% fetal calf serum for 4 days (optimum detection time), the presence of virus-infected cells was determined visually by the presence of syncytia and was subsequently confirmed by ELISA detection of the presence of HIV-2 antigen. Experiments were repeated on at least two different days with each determination done in quadruplicate samples, and the data presented in FIG. 3 are the mean % virus-infected cells."}, "HIV-2287 [6]": {"test_system": "HIV-2287", "test": "In situ hybridization of lymph node sections for HIV-2 RNA", "format": "in vivo, Macaca nemestrina", "conditions": "for viral RNA in lymph nodes: 20 mg/kg for 14 days, necropsy day 20", "procedure": "Histological analysis of HIV-infected cells: Histologic sections of lymph node were examined using in situ hybridization for HIV-2 gag RNA. Biopsy and postmortem tissues were preserved in fresh 4% deionized paraformaldehyde, embedded in paraffin wax, and sectioned to 5 μm. The sections were deparaffinized, rehydrated in Tris-buffered saline (TBS; 0.1 M Tris [pH 7.5], 0.1 M NaCl), digested with proteinase K (20-40 μg/ml, 37° C., for 30-50 min; Sigma), and treated overnight at 37° C. in a RNase-free DNase-1 solution (Boehringer Mannheim), as described previously.\nThe sections were then incubated for 5 min at 70° C. followed by 4 h at 42° C. with antisense RNA probes directed either to SW (strain mac251; Zhang Z Q, Schuler T, Cavert W, et al. Reversibility of the pathological changes in the follicular dendritic cell network with treatment of HIV-1 infection. Proc Nati Acad Sci U S A 1999;96 (9):5169-72) or HIV-2 gag-pol (stain 287; gag 2639-1080, pol 3473-2306; Galabru J, Rey-Cuille M A, Hovanessian A G. Nucleotide sequence of the HIV-2 EHO genome, a divergent HIV-2 isolate. AIDS Res Hum Retroviruses 1995;11 [7]:873-4). The RNA probes were constructed by cloning cDNA into transcription vectors under the control of T7 and SP6 RNA polymerase promoters (pGEM, Promega; Madison, Wis.). […] HIV-2 RNA was detected after autoradiographic exposures of 24 and 96 h.\nThe presence of viral RNA was indicated by deposition of silver grains on top of cells or as aggregates within lymph node germinal centers (FIG. 7) at a frequency statistically greater than background, as determined using Image-Pro® Plus software (Media Cybernetics, Silver Spring, Md.). Nonspecific background was determined in two ways with equivalent results. Silver grains were counted over 100 germinal center cells in tissue sections from mock-inoculated uninfected animals after hybridization to the HIV-2 or SIV antisense probe, or over cells from the tissues of infected monkeys after hybridization to noncomplimentary ‘sense’ RNA probes. […]"}, "HIV-2287 [7]": {"test_system": "HIV-2287", "format": "in vivo, Macaca nemestrina", "conditions": "for CD4+ T cell, After: after therapy; for CD4+ T cell, After / CD4+ T cell, Before: SC 22 mg/kg daily, 14 doses; for CD4+ T cell, Before: before therapy", "protocol": "Total RNA was isolated from plasma and lymphoid tissues using a Purescript RNA Isolation Kit (Gentra Systems, Minneapolis, Minn.). Viral RNA was measured using a quantitative, internally-controlled RNA PCR to estimate the number of HIV-2 copies/ml of sample (Watson A, Ranchalis J, Travis B, et al., Plasma viremia in macaques infected with simian immunodeficiency virus: plasma viral load early in infection predicts survival, J Virol 1997;71 (1):284-90) for some of the experiments and real-time quantitative PCR. The two methods have been validated to ensure consistency in estimating viral RNA concentration in plasma and tissues. Briefly, reverse transcription and PCR were performed as described. Because semi-quantitative methods have been well-documented (Watson, et al., 1997), only details on RT-QPCR are described below.\nLymphocyte subset analysis: Fluorescent labeled monoclonal antibodies to lymphocyte surface markers were used to quantitate populations of T cells (CD2+), helper T cells (CD4^+), suppressor T cells (CD8^+), and B cells (CD20^+) in maternal (1 ml) and fetal (150 μl) blood using procedures previously described (Ho R J, Agy M B, Morton W R, et al. Development of a chronically catheterized maternal-fetal macaque model to study in utero mother-to-fetus HIV transmission: a preliminary report. J Med Primatol 1996;25 (3):218-24).\nPlasma cholesterol level was monitored to evaluate the effects of cholesterol given as a part of lipid formulation."}, "[8]": {"test": "Degree of drug incorporation into lipid-drug complex (size-exclusion chromatography)", "format": "physicochemical", "protocol": "as §1\nThe degree of drug incorporation into the lipid-drug complex was determined by subjecting a small fraction of the preparation to size-exclusion chromatography using a Biogel A-0.5 M media (1×10 cm). […] By analyzing the amount of fraction in the lipid-associated complex, and free form with respect to the total amount loaded onto the column, the percentage of drug association was determined. (Lian, T. and Ho, R. J. Y., Recent trend and progress in liposome drug delivery systems; an invited minireview, J Pharm Sci 90:667-680 [2001]). To determine pH-dependent drug dissociation from the lipid-drug complex, the lipid-drug complex (originally prepared in pH 7.4 and free of unincorporated drug) can be incubated at, e.g., pH 7, 6, 5.5, 5, 4, 3.5 for 30 min. Subsequently, the mixture can be subjected to the degree of drug incorporation analysis described above. For animal studies, the drug-lipid complex formulations were further analyzed for sterility and endotoxin contamination. To ensure sterility and prevent underestimation of endotoxin that binds to lipids, the lipid-drug complex preparations were subjected to a blood agar culture test for 7 days at 37° C. for detection of microbial contamination.\nSubsequently, the % lipid-association was determined by separating free from lipid-associated drug by size-exclusion column chromatography. Data expressed were means of duplicate preparations for indicated pH value."}, "[9]": {"conditions": "SC 10 mg/kg single dose", "procedure": "These samples were resuspended in 100 μL, and a 10 μL sample was injected onto an RX-C8 column (21 mm×15 cm column) and eluted isocratically with a mobile phase containing 20 mM ammonium acetate in acetonitrile:water (65:35, v/v) running at 0.38 ml/min. […] Under these conditions, the detection limit was 100 pg, which made it possible to measure drug levels, extract RNA and DNA, isolate cells for detailed analyses of vRNA and vDNA-infected cells in lymph nodes, and fix the tissue for pathological analyses from limited sample size."}, "[10]": {"conditions": "axillary lymph node / plasma, axillary"}, "[11]": {"conditions": "inguinal lymph node / plasma, inguinal"}},
  "note": "Entries after “also recorded” stand apart in the source; their conditions may differ. Read-outs that look alike come from different tables or passages of the source.",
  "data": [
    {"smiles": "CC(C)(C)NC(=O)[C@@H]1CN(Cc2cccnc2)CCN1C[C@@H](O)C[C@@H](Cc1ccccc1)C(=O)N[C@H]1c2ccccc2C[C@H]1O", "note": "[Indinavir, N-(2(R)-hydroxy-1(S)-indanyl)-2(R)-phenylmethyl-4-(S)-hydroxy-5-(1-(4-(3-pyridyl-methyl)-2(S)-N′-(t-butylcarboxamido)-piperazinyl))-pentaneamide]", "values": [
      {"measurement": "Size in Diameter", "setting": "[1]", "result": "69 ± 7", "unit": "nm"},
      {"measurement": "EC50", "setting": "HIV-1LAV; CD8-depleted human PBMCs, HIV-1 p24 antigen", "result": "> 150", "unit": "nM"},
      {"measurement": "inhibition at 15 µM", "setting": "HIV-1LAV; at 15 μM", "result": "< 100", "unit": "%"},
      {"measurement": "time by which drug levels subsided below detectable levels", "setting": "[2]", "result": "4 to 5", "unit": "h"},
      {"measurement": "LogP (lipophilicity)", "setting": "[3]; pH 3.5", "result": 0},
      {"measurement": "LogP (lipophilicity)", "setting": "[3]; pH 5", "result": 1.8},
      {"measurement": "LogP (lipophilicity)", "setting": "[3]; pH 7", "result": 3},
      {"measurement": "Kp at […]", "setting": "[4]; axillary lymph node / plasma", "result": 0.01},
      {"measurement": "Kp at 2 hr", "setting": "[4]; [10]", "result": 0.02},
      {"measurement": "Kp at 3.75 hr", "setting": "[4]; [10]", "result": 0.0035},
      {"measurement": "concentration at 2 hr", "setting": "[4]; axillary lymph node, axillary", "result": 0.084, "unit": "ng/mL"},
      {"measurement": "concentration at 3.75 hr", "setting": "[4]; axillary lymph node, axillary", "result": 0.141, "unit": "ng/mL"},
      {"measurement": "Kp at […]", "setting": "[4]; inguinal lymph node / plasma", "result": 0.03},
      {"measurement": "Kp at 2 hr", "setting": "[4]; [11]", "result": 0.01},
      {"measurement": "Kp at 3.75 hr", "setting": "[4]; [11]", "result": 0.01},
      {"measurement": "concentration at 2 hr", "setting": "[4]; inguinal lymph node, inguinal", "result": 0.056, "unit": "ng/mL"},
      {"measurement": "concentration at 3.75 hr", "setting": "[4]; inguinal lymph node, inguinal", "result": 0.481, "unit": "ng/mL"},
      {"measurement": "concentration at 2 hr", "setting": "[4]; plasma", "result": 5.2, "unit": "ng/mL"},
      {"measurement": "concentration at 3.75 hr", "setting": "[4]; plasma", "result": 39.8, "unit": "ng/mL"},
      {"measurement": "EC50", "setting": "HIV-2287 [5]; Human immunodeficiency virus 2, CEM174, 96 h, read-out: EC50 (50% effective inhibitory concentration)", "result": "50 to 80", "unit": "nM"},
      {"measurement": "EC50", "setting": "HIV-2287 [5]; Human immunodeficiency virus 2, CEM174, read-out: in vitro ED50 against HIV-2287", "result": "60 to 80", "unit": "nM"},
      {"measurement": "HIV-2 RNA in lymph node germinal centers (in words)", "setting": "HIV-2287 [6]; axillary and mesenteric lymph nodes", "result": "showed aggregates of HIV-RNA in lymph node germinal centers"},
      {"measurement": "viral RNA in lymph nodes", "setting": "HIV-2287 [6]; macaque 215", "result": "13,290±1,450 gag-pol RNA copies/50× field"},
      {"measurement": "viral RNA in lymph nodes", "setting": "HIV-2287 [6]; macaque 283", "result": "8,134±890 gag-pol RNA copies/50× field"},
      {"measurement": "plasma virus load", "setting": "HIV-2287 [7]; Example 10: SC 20 mg/kg/day for 14 days, 30 weeks post-infection", "result": "did not exhibit a significant virus load reduction"},
      {"measurement": "CD4+ T cells after two weeks of treatment (in words)", "setting": "HIV-2287 [7]; four HIV-2287-infected animals, Table 5", "result": "the same pattern was not observed"},
      {"measurement": "CD4+ T cell, After", "setting": "HIV-2287 [7]; macaque 215", "result": 1473, "unit": "per μL"},
      {"measurement": "CD4+ T cell, Before", "setting": "HIV-2287 [7]; macaque 215", "result": 1946, "unit": "per μL"},
      {"measurement": "CD4+ T cell, After", "setting": "HIV-2287 [7]; macaque 283", "result": 1051, "unit": "per μL"},
      {"measurement": "CD4+ T cell, Before", "setting": "HIV-2287 [7]; macaque 283", "result": 1650, "unit": "per μL"},
      {"measurement": "% Associated with lipid-drug nanoparticles: Indinavir", "setting": "[8]; DSPC:mPE-DSPE formulation", "result": "97.5 ± 2.50", "unit": "%"},
      {"measurement": "Degree of Lipid Association (% total)", "setting": "[8]; drug associated with lipid membranes, pH 7.4", "result": "97.5 ± 2.5", "unit": "% total"},
      {"measurement": "incorporation into lipid-drug complexes (in words)", "setting": "[8]; neutral pH", "result": "completely or nearly completely; also recorded: incorporate nearly completely"},
      {"measurement": "indinavir preparation incorporated in lipid-indinavir complex", "setting": "[8]; neutral pH, lipid-to-drug molar ratio about 5:1 to about 10:1", "result": "80-100%"},
      {"measurement": "drug incorporated into the lipid bilayer of liposomes", "setting": "[8]; pH 4, lipid-to-drug ratio 5:1 (m/m)", "result": "< 30", "unit": "%"},
      {"measurement": "drug associated with liposome", "setting": "[8]; pH 7.4, lipid-to-drug ratio 5:1 (m/m)", "result": "85-95%"},
      {"measurement": "time of plasma drug concentration peak", "setting": "[9]", "result": "0.5 to 1", "unit": "h"}
    ]}
  ]
}
